Literature values in patent US20220249637A1, “COMBINATION THERAPY OF A CELL-MEDIATED CYTOTOXIC THERAPY AND AN INHIBITOR OF A PROSURVIVAL BCL2 FAMILY PROTEIN” (Juno Therapeutics, Inc., priority 2019, published 2022).

Legend:
CD3+ cells = details: human, in vivo; cited from earlier work
[1] = test system: CD3+CD4+ and CD3+CD8+ T cells; details: mouse, in vivo; cited from earlier work

navitoclax
average decrease of CD3+ cells (CD3+ cells): 241 cells/μL
decrease in T cells at final visits (CD3+ cells): maintained
CD3+CD4+ and CD3+CD8+ T cells in the peripheral blood [1]: induced a relative and absolute reduction
